Experimental data reported in PubChem BioAssay AID1963870 (Molecular Pharmacology Branch, DTP, NCI, 2024).

System: 292921-168-R-J2-PDC KRAS tumor spheroid viability
Experiment: Anticancer human tumor 292921-168-R-J2-PDC patient-derived pancreatic carcinoma cell line growth inhibition [KRAS2]
Conditions: spheroids with HUVEC and MSC; for IC50: curve of first compound; for viability, T/C: stronger effect = lower value
Excerpt: Multicellular complex tumor spheroid response to RAS pathway inhibitors in combination with a targeted agents in patient-derived cell lines with oncogenic KRAS variants from multiple cancer types
A high-throughput screen of multi-cell type tumor spheroids was designed to identify active combinations of targeted small molecules and KRAS pathway inhibitors. Complex spheroids include a stromal component modeled by human endothelial cells (HUVEC) and fibroblasts modeled by human mesenchymal stem cells (MSCs). The concentration ranges selected for each drug and investigational agent were based upon clinically achievable concentrations if the clinical Cmax of the agent was known.
Compounds. The drugs and investigational agents: BI-3406 (NSC825286), BAY-293 (NSC824723), batoprotafib (TNO155; NSC825523), sotorasib (AMG 510; NSC818433), MRTX1257 (NSC819558), elimusertib (BAY 1895344; NSC800525), molibresib (GSK525762; NSC774829), temuterkib (LY3214996; NSC803410), venetoclax (NSC766270), alisertib (NSC759677), olaparib (NSC753686), talazoparib (NSC767125), erdafitinib (NSC781556), ipatasertib (NSC767898), cabozantinib (NSC761068), nintedanib (NSC756659), abemaciclib (NSC768073), docetaxel (NSC628503), trametinib (NSC758246), and sapanisertib (NSC764658) were obtained from the National Cancer Institute (NCI) Developmental Therapeutics Program Chemical Repository. The FDA-approved anticancer drug set is available from the Developmental Therapeutics Program. […] The stock solutions were prepared in dimethyl sulfoxide (DMSO, Sigma-Aldrich, St. Louis, MO, cat. D2650) at 800-fold the tested concentration and stored at -70 degrees C prior to their use. All drugs and investigational agents were tested over a range starting from a high concentration at or near the clinical Cmax and decreasing in half-log increments. If the clinical Cmax for an agent had not been determined, the highest concentration tested was 10 microM.
Cell Culture. All cells were maintained in an incubator at 37 degrees C and 5% CO2 with 95% humidity. The PDC lines were cultured according to standard operating procedures established by the NCI PDMR (https://pdmr.cancer.gov/sops/default.htm). Briefly, all PDCs were thawed and cultured in Matrigel-coated flasks prepared with a working solution of 1X Ham's F-12 nutrient mix, without supplementation (Invitrogen, Waltham, MA, cat. 11765054), 100 U/mL penicillin-streptomycin (Invitrogen, cat. 15140122), and 2.5% Matrigel (Corning Inc., Corning, NY, cat. 354248) for the first three passages. All PDCs were cultured in complete DMEM/F-12 media containing advanced DMEM/F-12 (Invitrogen, cat. 12634028), 4.9% defined fetal bovine serum, heat inactivated (HyClone Laboratories Inc., Logan, UT, cat. SH30070.03HI), 389 ng/mL hydrocortisone (Sigma-Aldrich, cat. H4001), 9.7 ng/mL human EGF recombinant protein (Invitrogen, cat. PHG0313), 23.4 microg/mL adenine (Sigma-Aldrich, cat. A2786), 97.3 U/mL penicillin-streptomycin (Invitrogen, cat. 15140122), 1.9 mM L-glutamine (Invitrogen, cat. 25030081), and 9.7 microM Y-27632 dihydrochloride (Tocris Bioscience, Bristol, United Kingdom, cat. 1254). The PDCs were cultured in complete DMEM/F12 media without 9.7 microM Y-27632 dihydrochloride for at least two passages prior to the screen. The established cell line HOP-62 was cultured in RPMI 1640 medium, HEPES (Invitrogen, cat. 22400105) with 10% defined fetal bovine serum (HyClone Laboratories Inc., cat. SH30070.03) and 2 mM L-glutamine (Invitrogen, cat. 25030081). The pooled donor HUVEC were cultured in endothelial cell growth medium 2 (PromoCell, Heidelberg, Germany, cat. C-22011) and the hMSC were cultured in mesenchymal stem cell growth medium 2 (PromoCell, cat. C-28009). For all experiments, HUVEC and hMSC were used at passages </=5, while the malignant cell lines were used at passages </=15. […]

[1] = second compound 0.1 µM, first compound 0.0316 µM
[2] = second compound 0.1 µM, first compound 0.1 µM
[3] = second compound 0.316 µM, first compound 0.0316 µM
[4] = second compound 0.316 µM, first compound 0.1 µM
[5] = second compound 1 µM, first compound 0.0316 µM
[6] = second compound 1 µM, first compound 0.1 µM
[7] = second compound 3.16 µM, first compound 0.0316 µM
[8] = second compound 3.16 µM, first compound 0.1 µM
[9] = second compound 10 µM, first compound 0.0316 µM
[10] = second compound 10 µM, first compound 0.1 µM
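Note: drug exposure lasted seven days after spheroids formed for three days.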
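Throughout, for viability, T/C: percent of DMSO vehicle control viability which is 100%.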

Question: Which results are given for `CC(C)n1nc(-c2ccc3oc(N)nc3c2)c2c(N)ncnc21` + C=CC(=O)N1CCN(c2nc(=O)n(-c3c(C)ccnc3C(C)C)c3nc(-c4c(O)cccc4F)c(F)cc23)C(C)C1?
Answer: IC50 (second compound 0.1 µM): 0.00689 µM; IC50 (second compound 0.316 µM): 0.00961 µM; IC50 (second compound 1 µM): 0.0117 µM; IC50 (second compound 3.16 µM): 0.00493 µM; IC50 (second compound 10 µM): < 0.000316 µM; viability, T/C (second compound 0.1 µM, first compound 0.000316 µM): 107%; viability, T/C (second compound 0.1 µM, first compound 0.001 µM): 88.6%; viability, T/C (second compound 0.1 µM, first compound 0.00316 µM): 62%; viability, T/C (second compound 0.1 µM, first compound 0.01 µM): 44.5%; viability, T/C [1]: 32.8%; viability, T/C [2]: 27%; viability, T/C (second compound 0.316 µM, first compound 0.000316 µM): 111%; viability, T/C (second compound 0.316 µM, first compound 0.001 µM): 99.7%; viability, T/C (second compound 0.316 µM, first compound 0.00316 µM): 66.9%; viability, T/C (second compound 0.316 µM, first compound 0.01 µM): 53.6%; viability, T/C [3]: 33.6%; viability, T/C [4]: 29.7%; viability, T/C (second compound 1 µM, first compound 0.000316 µM): 121%; viability, T/C (second compound 1 µM, first compound 0.001 µM): 99.7%; viability, T/C (second compound 1 µM, first compound 0.00316 µM): 77.1%; viability, T/C (second compound 1 µM, first compound 0.01 µM): 50.4%; viability, T/C [5]: 38.3%; viability, T/C [6]: 32.3%; viability, T/C (second compound 3.16 µM, first compound 0.000316 µM): 68.4%; viability, T/C (second compound 3.16 µM, first compound 0.001 µM): 72.6%; viability, T/C (second compound 3.16 µM, first compound 0.00316 µM): 55.3%; viability, T/C (second compound 3.16 µM, first compound 0.01 µM): 40.1%; viability, T/C [7]: 36.7%; viability, T/C [8]: 30.9%; viability, T/C (second compound 10 µM, first compound 0.000316 µM): 26.3%; viability, T/C (second compound 10 µM, first compound 0.001 µM): 33.3%; viability, T/C (second compound 10 µM, first compound 0.00316 µM): 30%; viability, T/C (second compound 10 µM, first compound 0.01 µM): 31.2%; viability, T/C [9]: 29.5%; viability, T/C [10]: 27.1%

Question: With `CC(C)NCC(C(=O)N1CCN(c2ncnc3c2C(C)CC3O)CC1)c1ccc(Cl)cc1` (stereo not given) + CC1OCC2(CCN(c3cnc(Sc4ccnc(N)c4Cl)c(N)n3)CC2)C1N as the compound, how does the IC50 (second compound 0.1 µM) read?
Answer: The IC50 was 5.03 µM.

Question: What about the IC50 (second compound 0.316 µM) of the same compound?
Answer: Its IC50 is 3.62 µM.

Question: And the IC50 (second compound 1 µM)?
Answer: The IC50 was less than 0.0316 µM.

Question: And the IC50 (second compound 3.16 µM)?
Answer: The IC50 was less than 0.0316 µM.

Question: And the IC50 (second compound 10 µM)?
Answer: Its IC50 is less than 0.0316 µM.

Question: And the viability, T/C [1]?
Answer: The viability, T/C was 67.3%.

Question: What about the viability, T/C [2] of the same compound?
Answer: Its viability, T/C is 65.3%.

Question: What about the viability, T/C (second compound 0.1 µM, first compound 0.316 µM) of the same compound?
Answer: The viability, T/C was 65%.

Question: What about the viability, T/C (second compound 0.1 µM, first compound 1 µM) of the same compound?
Answer: Its viability, T/C is 67%.

Question: And the viability, T/C (second compound 0.1 µM, first compound 3.16 µM)?
Answer: The viability, T/C was 58%.

Question: What about the viability, T/C (second compound 0.1 µM, first compound 10 µM) of the same compound?
Answer: Its viability, T/C is 36.8%.

Question: What about the viability, T/C [3] of the same compound?
Answer: The viability, T/C was 51.1%.

Question: What about the viability, T/C [4] of the same compound?
Answer: The viability, T/C was 57%.

Question: And the viability, T/C (second compound 0.316 µM, first compound 0.316 µM)?
Answer: The viability, T/C was 56.8%.

Question: And the viability, T/C (second compound 0.316 µM, first compound 1 µM)?
Answer: Its viability, T/C is 55.7%.

Question: What about the viability, T/C (second compound 0.316 µM, first compound 3.16 µM) of the same compound?
Answer: The viability, T/C was 52.3%.

Question: What about the viability, T/C (second compound 0.316 µM, first compound 10 µM) of the same compound?
Answer: Its viability, T/C is 31.1%.

Question: And the viability, T/C [5]?
Answer: Its viability, T/C is 46.2%.

Question: What about the viability, T/C [6] of the same compound?
Answer: Its viability, T/C is 42.9%.

Question: And the viability, T/C (second compound 1 µM, first compound 0.316 µM)?
Answer: Its viability, T/C is 48.1%.

Question: What about the viability, T/C (second compound 1 µM, first compound 1 µM) of the same compound?
Answer: Its viability, T/C is 46.1%.

Question: And the viability, T/C (second compound 1 µM, first compound 3.16 µM)?
Answer: Its viability, T/C is 39.3%.

Question: What about the viability, T/C (second compound 1 µM, first compound 10 µM) of the same compound?
Answer: Its viability, T/C is 25.9%.

Question: And the viability, T/C [7]?
Answer: The viability, T/C was 36.1%.

Question: What about the viability, T/C [8] of the same compound?
Answer: The viability, T/C was 36.5%.

Question: What about the viability, T/C (second compound 3.16 µM, first compound 0.316 µM) of the same compound?
Answer: The viability, T/C was 39.9%.

Question: What about the viability, T/C (second compound 3.16 µM, first compound 1 µM) of the same compound?
Answer: Its viability, T/C is 41.7%.

Question: And the viability, T/C (second compound 3.16 µM, first compound 3.16 µM)?
Answer: Its viability, T/C is 37.4%.

Question: And the viability, T/C (second compound 3.16 µM, first compound 10 µM)?
Answer: Its viability, T/C is 22.7%.

Question: What about the viability, T/C [9] of the same compound?
Answer: The viability, T/C was 33.6%.

Question: What about the viability, T/C [10] of the same compound?
Answer: Its viability, T/C is 33.8%.

Question: And the viability, T/C (second compound 10 µM, first compound 0.316 µM)?
Answer: Its viability, T/C is 39.4%.

Question: What about the viability, T/C (second compound 10 µM, first compound 1 µM) of the same compound?
Answer: The viability, T/C was 33.8%.

Question: And the viability, T/C (second compound 10 µM, first compound 3.16 µM)?
Answer: The viability, T/C was 32.9%.

Question: What about the viability, T/C (second compound 10 µM, first compound 10 µM) of the same compound?
Answer: The viability, T/C was 20.6%.
